In PubChem BioAssay (NCI):
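Tested at 5 concentrations; 48 h exposure; 96-well plates; endpoints linearly interpolated, else capped at highest concentration. The concentration for 50% growth inhibition is given as GI50. TGI: concentration producing complete growth inhibition.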

How the values were obtained:
Assay in all cases: DTP human tumour cell line panel, 48 h
[1] = system: HL-60(TB) leukemia
[2] = system: NCI-H522 lung
[3] = system: HCT-15 colon
[4] = system: SR leukemia
[5] = system: KM12 colon
[6] = system: EKVX NSCLC
[7] = system: IGROV1 ovarian
[8] = system: RXF 393 renal
[9] = system: SW-620 colon
[10] = system: NCI-H460 lung
[11] = system: SNB-75 CNS
[12] = system: MDA-MB-231 breast
[13] = system: SF-295 CNS
[14] = system: SK-MEL-5 melanoma
[15] = system: A498 renal
[16] = system: OVCAR-3 ovarian
[17] = system: U251 CNS
[18] = system: NCI-H226 lung
[19] = system: T-47D breast
[20] = system: PC-3 prostate
[21] = system: K-562 leukemia
[22] = system: SN12C renal
[23] = system: OVCAR-5 ovarian
[24] = system: TK-10 renal
[25] = system: HT29 colon
[26] = system: OVCAR-8 ovarian
[27] = system: HOP-92 NSCLC
[28] = system: MALME-3M melanoma
[29] = system: CCRF-CEM leukemia
[30] = system: UACC-62 melanoma
[31] = system: MCF7 breast
[32] = system: OVCAR-4 ovarian
[33] = system: SK-MEL-28 melanoma
[34] = system: A549 NSCLC
[35] = system: SK-OV-3 ovarian
[36] = system: NCI/ADR-RES ovarian
[37] = system: HS 578T breast
[38] = system: NCI-H23 lung
[39] = system: HCT-116 colon
[40] = system: UACC-257 melanoma
[41] = system: SF-268 CNS
[42] = system: ACHN renal
[43] = system: MOLT-4 leukemia
[44] = system: SK-MEL-2 melanoma
[45] = system: COLO 205 colon
[46] = system: CAKI-1 renal
[47] = system: HOP-62 NSCLC
[48] = system: UO-31 renal
[49] = system: DU-145 prostate
[50] = system: BT-549 breast
[51] = system: SNB-19 CNS
[52] = system: HCC-2998 colon
[53] = system: RPMI-8226 leukemia
[54] = system: LOX IMVI melanoma
[55] = system: SF-539 CNS
[56] = system: 786-0 renal
[57] = system: MDA-MB-435

Question: Which GI50 [1] does the source give for `NNC(=S)N/N=C/c1ccccn1` here?
Answer: The GI50 was 1.74 µM.

Question: And the TGI [1]?
Answer: The TGI was 5.92 µM.

Question: What about the GI50 [2] of the same compound?
Answer: Its GI50 is 0.258 µM.

Question: What about the TGI [2] of the same compound?
Answer: The TGI was 0.859 µM.

Question: What about the GI50 [3] of the same compound?
Answer: Its GI50 is 1.03 µM.

Question: And the TGI [3]?
Answer: The TGI was over 100 µM.

Question: And the GI50 [4]?
Answer: Its GI50 is 0.884 µM.

Question: What about the TGI [4] of the same compound?
Answer: Its TGI is 90.1 µM.

Question: What about the GI50 [5] of the same compound?
Answer: Its GI50 is 2.62 µM.

Question: And the TGI [5]?
Answer: The TGI was over 100 µM.

Question: What about the GI50 [6] of the same compound?
Answer: Its GI50 is 4.5 µM.

Question: What about the TGI [6] of the same compound?
Answer: Its TGI is over 100 µM.

Question: What about the GI50 [7] of the same compound?
Answer: The GI50 was 3.05 µM.

Question: What about the TGI [7] of the same compound?
Answer: Its TGI is over 100 µM.

Question: And the GI50 [8]?
Answer: Its GI50 is 2.5 µM.

Question: And the TGI [8]?
Answer: The TGI was over 100 µM.

Question: And the GI50 [9]?
Answer: The GI50 was 3.89 µM.

Question: And the TGI [9]?
Answer: Its TGI is over 100 µM.

Question: And the GI50 [10]?
Answer: Its GI50 is 1.23 µM.

Question: And the TGI [10]?
Answer: The TGI was 8.54 µM.

Question: And the GI50 [11]?
Answer: Its GI50 is 1.72 µM.

Question: And the TGI [11]?
Answer: Its TGI is 11.4 µM.

Question: What about the GI50 [12] of the same compound?
Answer: Its GI50 is 0.699 µM.

Question: And the TGI [12]?
Answer: Its TGI is over 100 µM.

Question: And the GI50 [13]?
Answer: The GI50 was 3.06 µM.

Question: And the TGI [13]?
Answer: The TGI was over 100 µM.

Question: What about the GI50 [14] of the same compound?
Answer: Its GI50 is 2.63 µM.

Question: What about the TGI [14] of the same compound?
Answer: Its TGI is 22.3 µM.

Question: And the GI50 [15]?
Answer: The GI50 was 1.82 µM.

Question: What about the TGI [15] of the same compound?
Answer: Its TGI is 9.01 µM.

Question: What about the GI50 [16] of the same compound?
Answer: The GI50 was 3.02 µM.

Question: What about the TGI [16] of the same compound?
Answer: The TGI was over 100 µM.

Question: What about the GI50 [17] of the same compound?
Answer: Its GI50 is 1.99 µM.

Question: What about the TGI [17] of the same compound?
Answer: Its TGI is over 100 µM.

Question: And the GI50 [18]?
Answer: The GI50 was 2.41 µM.

Question: What about the TGI [18] of the same compound?
Answer: The TGI was 13.8 µM.

Question: And the GI50 [19]?
Answer: Its GI50 is 2.44 µM.

Question: What about the TGI [19] of the same compound?
Answer: The TGI was over 100 µM.

Question: And the GI50 [20]?
Answer: The GI50 was 5.62 µM.

Question: And the TGI [20]?
Answer: The TGI was over 100 µM.

Question: What about the GI50 [21] of the same compound?
Answer: Its GI50 is 2.64 µM.

Question: And the TGI [21]?
Answer: Its TGI is over 100 µM.

Question: What about the GI50 [22] of the same compound?
Answer: Its GI50 is 2.61 µM.

Question: What about the TGI [22] of the same compound?
Answer: The TGI was over 100 µM.

Question: And the GI50 [23]?
Answer: Its GI50 is 3.68 µM.

Question: And the TGI [23]?
Answer: Its TGI is over 100 µM.

Question: What about the GI50 [24] of the same compound?
Answer: The GI50 was 1.96 µM.

Question: What about the TGI [24] of the same compound?
Answer: Its TGI is over 100 µM.

Question: And the GI50 [25]?
Answer: The GI50 was 3.54 µM.

Question: And the TGI [25]?
Answer: The TGI was over 100 µM.

Question: What about the GI50 [26] of the same compound?
Answer: Its GI50 is 2.28 µM.

Question: And the TGI [26]?
Answer: The TGI was over 100 µM.

Question: What about the GI50 [27] of the same compound?
Answer: The GI50 was 0.887 µM.

Question: What about the TGI [27] of the same compound?
Answer: The TGI was 8.2 µM.

Question: What about the GI50 [28] of the same compound?
Answer: The GI50 was 5.19 µM.

Question: And the TGI [28]?
Answer: The TGI was over 100 µM.

Question: What about the GI50 [29] of the same compound?
Answer: Its GI50 is 2.05 µM.

Question: And the TGI [29]?
Answer: Its TGI is over 100 µM.

Question: What about the GI50 [30] of the same compound?
Answer: Its GI50 is 2.03 µM.

Question: What about the TGI [30] of the same compound?
Answer: The TGI was 14 µM.

Question: And the GI50 [31]?
Answer: Its GI50 is 2.99 µM.

Question: What about the TGI [31] of the same compound?
Answer: Its TGI is over 100 µM.

Question: And the GI50 [32]?
Answer: Its GI50 is 1.67 µM.

Question: What about the TGI [32] of the same compound?
Answer: Its TGI is over 100 µM.

Question: What about the GI50 [33] of the same compound?
Answer: Its GI50 is 4.47 µM.

Question: And the TGI [33]?
Answer: The TGI was over 100 µM.

Question: And the GI50 [34]?
Answer: Its GI50 is 3.14 µM.

Question: What about the TGI [34] of the same compound?
Answer: The TGI was over 100 µM.

Question: What about the GI50 [35] of the same compound?
Answer: Its GI50 is 2.89 µM.

Question: And the TGI [35]?
Answer: Its TGI is over 100 µM.

Question: What about the GI50 [36] of the same compound?
Answer: Its GI50 is 2.81 µM.

Question: And the TGI [36]?
Answer: Its TGI is over 100 µM.

Question: And the GI50 [37]?
Answer: Its GI50 is 3.86 µM.

Question: And the TGI [37]?
Answer: Its TGI is over 100 µM.

Question: What about the GI50 [38] of the same compound?
Answer: Its GI50 is 3.54 µM.

Question: And the TGI [38]?
Answer: Its TGI is over 100 µM.

Question: What about the GI50 [39] of the same compound?
Answer: The GI50 was 1.66 µM.

Question: And the TGI [39]?
Answer: Its TGI is over 100 µM.

Question: What about the GI50 [40] of the same compound?
Answer: Its GI50 is 2.7 µM.

Question: And the TGI [40]?
Answer: Its TGI is 26.6 µM.

Question: And the GI50 [41]?
Answer: The GI50 was 1.58 µM.

Question: And the TGI [41]?
Answer: The TGI was over 100 µM.

Question: What about the GI50 [42] of the same compound?
Answer: The GI50 was 1.71 µM.

Question: What about the TGI [42] of the same compound?
Answer: The TGI was over 100 µM.

Question: And the GI50 [43]?
Answer: The GI50 was 3.34 µM.

Question: What about the TGI [43] of the same compound?
Answer: The TGI was over 100 µM.

Question: What about the GI50 [44] of the same compound?
Answer: Its GI50 is 2.86 µM.

Question: What about the TGI [44] of the same compound?
Answer: The TGI was over 100 µM.

Question: What about the GI50 [45] of the same compound?
Answer: The GI50 was 2.39 µM.

Question: And the TGI [45]?
Answer: Its TGI is over 100 µM.

Question: What about the GI50 [46] of the same compound?
Answer: The GI50 was 1.66 µM.

Question: What about the TGI [46] of the same compound?
Answer: Its TGI is over 100 µM.

Question: And the GI50 [47]?
Answer: Its GI50 is 1.44 µM.

Question: And the TGI [47]?
Answer: Its TGI is 35.3 µM.

Question: What about the GI50 [48] of the same compound?
Answer: The GI50 was 3.99 µM.

Question: What about the TGI [48] of the same compound?
Answer: Its TGI is over 100 µM.

Question: What about the GI50 [49] of the same compound?
Answer: The GI50 was 1.85 µM.

Question: What about the TGI [49] of the same compound?
Answer: Its TGI is over 100 µM.

Question: What about the GI50 [50] of the same compound?
Answer: The GI50 was 4.29 µM.

Question: What about the TGI [50] of the same compound?
Answer: The TGI was over 100 µM.

Question: What about the GI50 [51] of the same compound?
Answer: The GI50 was 3.57 µM.

Question: And the TGI [51]?
Answer: Its TGI is over 100 µM.

Question: What about the GI50 [52] of the same compound?
Answer: The GI50 was 3.12 µM.

Question: And the TGI [52]?
Answer: The TGI was over 100 µM.

Question: What about the GI50 [53] of the same compound?
Answer: The GI50 was 2.44 µM.

Question: What about the TGI [53] of the same compound?
Answer: Its TGI is over 100 µM.

Question: And the GI50 [54]?
Answer: The GI50 was 2.3 µM.

Question: What about the TGI [54] of the same compound?
Answer: Its TGI is over 100 µM.

Question: What about the GI50 [55] of the same compound?
Answer: The GI50 was 2.06 µM.

Question: What about the TGI [55] of the same compound?
Answer: The TGI was 9.32 µM.

Question: What about the GI50 [56] of the same compound?
Answer: The GI50 was 1.76 µM.

Question: What about the TGI [56] of the same compound?
Answer: Its TGI is over 100 µM.

Question: What about the GI50 [57] of the same compound?
Answer: The GI50 was 5.2 µM.

Question: What about the TGI [57] of the same compound?
Answer: Its TGI is over 100 µM.
